In patent US9326513B2, “Fungicidal compositions” (Syngenta Participations AG, priority 2011, dated 2016):

Tests used:
Type in all cases: in vivo
Details in all cases: foliar, compared to untreated control leaf disks, read-out: disease control
[1] = system: Puccinia recondita f. sp. tritici; test: Puccinia recondita f. sp. tritici / wheat / leaf disc curative (brown rust)
Protocol: Puccinia recondita f. sp. tritici/Wheat/Leaf Disc Curative (Brown Rust) Wheat leaf segments cv. Kanzler are placed on agar in multiwell plates (24-well format). The leaf segments are inoculated with a spore suspension of the fungus. Plates were stored in darkness at 19° C. and 75% rh. The formulated test compound diluted in water was applied 1 day after inoculation.

[2] = system: Puccinia recondita f. sp. tritici; test: Puccinia recondita f. sp. tritici / wheat / leaf disc preventative (brown rust)
From the text: Puccinia recondita f. sp. tritici/Wheat/Leaf Disc Preventative (Brown Rust) Wheat leaf segments cv. Kanzler were placed on agar in multiwell plates (24-well format) and sprayed with the formulated test compound diluted in water. The leaf disks were inoculated with a spore suspension of the fungus 1 day after application.

[3] = system: Blumeria graminis f. sp. tritici (Erysiphe graminis f. sp. tritici); test: Blumeria graminis f. sp. tritici / wheat / leaf disc preventative (powdery mildew on wheat)
How it was run: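 Wheat leaf segments (cv. Kanzler) on agar were sprayed with formulated compound in water, inoculated with powdery mildew 1 day later, and kept at 20° C, 60% rh (24 h dark, then 12 h light/12 h dark). Percent disease control versus untreated scored 6-8 days after application; tested at 200 ppm.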

[4] = system: Pyrenophora teres; test: Pyrenophora teres / barley / leaf disc preventative (net blotch)
From the text: Pyrenophora teres/Barley/Leaf Disc Preventative (Net Blotch) Barley leaf segments cv. Hasso were placed on agar in a multiwell plate (24-well format) and sprayed with the formulated test compound diluted in water. The leaf segments were inoculated with a spore suspension of the fungus 2 days after application.

Measured: pest or weed control at 200 ppm

CCN(C)/C=N/c1cc(Br)c(OC2CCN(S(=O)(=O)N(C)C)CC2)nc1C [Q.164]
≥ 50%: all assays above

CCc1nc(OCc2ccccc2C)c(Br)cc1/N=C/N(C)CC [Q.398]
≥ 50%: all assays above

Cc1ccccc1CC(C)Oc1ccc(/N=C/N(C)C(C)C)c(C)n1 (stereo not drawn) [Q.355]
≥ 50%: all assays above

CCN(C)/C=N/c1cc(Br)c(OC2CC=CCC2)nc1C (stereo not drawn) [Q.316]
≥ 50%: all assays above

CCN(C)/C=N/c1cc(Br)c(OCCCCc2ccccc2)nc1C [Q.148]
≥ 50%: all assays above

CCN(C)/C=N/c1cc(Br)c(OCCCc2ccccc2)nc1C [Q.100]
≥ 50%: all assays above

CCN(C)/C=N/c1cc(Br)c(OC2Cc3ccc(OC)cc3C2)nc1C (stereo not drawn) [Q.199]
≥ 50%: all assays above

CCN(C)/C=N/c1ccc(OC(C)c2cc(C)cc(C)c2)nc1C (stereo not drawn) [Q.358]
≥ 50%: all assays above

C=C(C)c1nc(OCc2ccccc2C)c(Br)cc1/N=C/N(C)CC [Q.400]
≥ 50%: all assays above

CCN(C)/C=N/c1cc(Br)c(OC/C=C\c2cccc(OC)c2)nc1C [Q.023]
≥ 50%: all assays above

CCN(C)/C=N/c1cc(Br)c(OCc2ccccc2[S+](C)[O-])nc1C (stereo not drawn) [Q.336]
≥ 50%: all assays above

CCN(C)/C=N/c1cc(Br)c(OC2CCC(Cc3ccccc3)CC2)nc1C (stereo not drawn) [Q.119]
≥ 50%: all assays above

CCN(C)/C=N/c1cc(Br)c(OC2CCc3ccc(C(C)=O)cc3C2)nc1C (stereo not drawn) [Q.033]
≥ 50%: all assays above

CCN(C)/C=N/c1cc(Br)c(OC2CCN(C(=O)OC(C)(C)C)CC2)nc1C [Q.038]
≥ 50%: all assays above

CCN(C)/C=N/c1cc(Br)c(OCCc2cccc(F)c2)nc1C [Q.116]
≥ 50%: all assays above

CCN(C)/C=N/c1cc(Br)c(OC2Cc3ccc(OCc4ccns4)cc3C2)nc1C (stereo not drawn) [Q.144]
≥ 50%: all assays above

C=C1CCC(Oc2nc(C)c(/N=C/N(C)CC)cc2Br)CC1 [Q.293]
≥ 50%: all assays above

CCN(C)/C=N/c1cc(Br)c(OCC2CCCC(C#N)C2)nc1C (stereo not drawn) [Q.032]
≥ 50%: all assays above

CCN(C)/C=N/c1cc(Br)c(OCc2ccsc2)nc1C [Q.208]
≥ 50%: all assays above

CCN(C)/C=N/c1cc(Br)c(OC2CCC(C)C(C)CC2)nc1C (stereo not drawn) [Q.308]
≥ 50%: all assays above

CCN(C)/C=N/c1cc(-c2ccccc2)c(OC2CC=CC2)nc1C [Q.262]
≥ 50%: all assays above

C=Cc1cccc(C(C)Oc2nc(C)c(/N=C/N(C)CC)cc2Br)c1 (stereo not drawn) [Q.278]
≥ 50%: all assays above

CCN(C)/C=N/c1cc(Br)c(OC2CC(C)=C(C)C2)nc1C [Q.315]
≥ 50%: all assays above

CCN(C)/C=N/c1cc(C2CC2)c(O[C@H]2CC[C@@H](C(C)C)CC2)nc1C [Q.249]
≥ 50%: all assays above

CCN(C)/C=N/c1cc(Br)c(O[C@H]2C[C@@H]3ON=C(C)[C@@H]3C2)nc1C [Q.070]
≥ 50%: all assays above

CCN(C)/C=N/c1cc(Br)c(OC2CCSCC2)nc1C [Q.158]
≥ 50%: all assays above

Cc1ccccc1CCOc1ccc(/N=C/N(C)C(C)C)c(C)n1 [Q.352]
≥ 50%: all assays above

CCN(C)/C=N/c1cc(Br)c(OCc2cccc(C(C)F)c2)nc1C (stereo not drawn) [Q.291]
≥ 50%: all assays above

CCN(C)/C=N/c1cc(Br)c(OC2CCN(S(C)(=O)=O)CC2)nc1C [Q.163]
≥ 50%: all assays above

CCN(C)/C=N/c1cc(C)c(O[C@H]2CC[C@@H](C(C)C)CC2)nc1C [Q.186]
≥ 50%: all assays above

CCN(C)/C=N/c1cc(I)c(OC(C)c2cc(F)cc(F)c2)nc1C (stereo not drawn) [Q.178]
≥ 50%: all assays above

CCN(C)/C=N/c1cc(Br)c(OC(C)Cc2cccc(F)c2)nc1C (stereo not drawn) [Q.218]
≥ 50%: all assays above

CCN(C)/C=N/c1cc(Br)c(OCCC(C)C)nc1C [Q.391]
≥ 50%: all assays above
